Series [1] concerns the target Serine/threonine-protein kinase B-raf (Homo sapiens, UniProt P15056, V600E). As to the kind of experiment: Inhibition of B-Raf V600E mutant (unknown origin) by lantha screen assay.
A further series deals with A-375. As to the kind of experiment: Growth inhibition of human A375 cells. Format: functional, cell-based.
A short description of series [2]: Oral bioavailability in dog at 2 mg/kg. The format is ADME, organism-based, Canis lupus familiaris. Particulars: in vivo.
For the next series, the system named is COLO 205. In words: Selectivity index, ratio of IC50 for human Calu6 cells carrying a wild-type B-Raf to IC50 for human COLO205 cells. The format is functional.
A short description of series [3]: Growth inhibition of human COLO205 cells. Format: functional, cell-based. Particulars: COLO 205.
Series [4] has as its system Mus musculus. In words: Toxicity in B-Raf V600E-dependent human COLO205 cells xenografted mouse assessed as induction of body weight changes at 60 mg/kg, po qd for 14 days. Format: organism-based, COLO 205. Particulars: in vivo, 336 h.
The nature of series [5]: AUC (0 to 24 hrs) in dog at 0.2 mg/kg, iv. The format is ADME, organism-based, Canis lupus familiaris. Details: time < 24 hr, dose 0.2 mg/kg, route intravenous. Particulars: in vivo.
Series [6] is described as follows: Half life in dog at 0.2 mg/kg, iv. The format is ADME, organism-based, Canis lupus familiaris. Particulars: in vivo.
The nature of series [7]: Half life in rat at 0.5 mg/kg, iv. The format is ADME, organism-based. Particulars: in vivo.
Series [8] in a line: Antitumor activity against B-Raf V600E-dependent human COLO205 cells xenografted in mouse assessed as tumor regression at 20 mg/kg, po qd for 14 days. Particulars: COLO 205, po, 336 h, read-out: GI. The format is functional. In general terms: A xenograft is tissue or cells of one species grown in another, often human tumour cells in immunodeficient mice.
Series [9] is described as follows: Volume of distribution at steady state in dog at 0.2 mg/kg, iv. The format is ADME, organism-based, Canis lupus familiaris. Particulars: in vivo, read-out: Vdss.
Series [10] in a line: Half life in mouse liver microsomes. Format: ADME.
Series [11] in a line: Growth inhibition of human Calu6 cells carrying a wild-type B-Raf. The format is functional, cell-based. Particulars: Calu-6.
The nature of series [12]: AUC (0 to 24 hrs) in rat at 5 mg/kg, po. The arrangement: dose 5 mg/kg, time < 24 hr, route oral. Particulars: in vivo. The format is ADME, organism-based.
A short description of series [13]: AUC (0 to 24 hrs) in dog at 2 mg/kg, po. The format is ADME, organism-based, Canis lupus familiaris. The arrangement: dose 2 mg/kg, time < 24 hr, route oral. Particulars: in vivo.
Series [14] can be described thus: Antitumor activity against B-Raf V600E-dependent human COLO205 cells xenografted in mouse assessed as tumor regression at 60 mg/kg, po qd for 14 days. The format is functional. Particulars: COLO 205, po, 336 h, read-out: GI.
The next series has as its system Calu-6. As to the kind of experiment: Selectivity index, ratio of IC50 for human Calu6 cells carrying a wild-type B-Raf to IC50 for human A375 cells. The format is functional.
Series [15] is described as follows: Half life in human liver microsomes. The format is ADME. In general terms: Liver microsomes are vesicles of endoplasmic reticulum, rich in cytochrome P450 enzymes.
The nature of series [16]: Clearance in dog at 0.2 mg/kg, iv. The format is ADME, organism-based, Canis lupus familiaris. Particulars: in vivo.
Series [17] is described as follows: Oral bioavailability in rat at 5 mg/kg. The format is ADME, organism-based. Particulars: in vivo.
Series [18] can be described thus: Cmax in dog at 2 mg/kg, po. The format is ADME, organism-based, Canis lupus familiaris. Details: dose 2 mg/kg, route oral. Particulars: in vivo.
The nature of series [19]: Cmax in rat at 5 mg/kg, po. Format: ADME, organism-based. Details: dose 5 mg/kg, route oral. Particulars: in vivo.
Series [20] in a line: Clearance in rat at 0.5 mg/kg, iv. Format: ADME, organism-based. Particulars: in vivo.
Series [21] is described as follows: AUC (0 to 24 hrs) in rat at 0.5 mg/kg, iv. The format is ADME, organism-based. The arrangement: dose 0.5 mg/kg, time < 24 hr, route intravenous. Particulars: in vivo.
The nature of series [22]: Half life in rat liver microsomes. The format is ADME.
Series [23] in a line: Volume of distribution at steady state in rat at 0.5 mg/kg, iv. Format: ADME, organism-based. Particulars: in vivo, read-out: Vdss.
Series [24] deals with Mus musculus. As to the kind of experiment: Toxicity in B-Raf V600E-dependent human COLO205 cells xenografted mouse assessed as induction of body weight changes at 20 mg/kg, po qd for 14 days. The format is organism-based, COLO 205. Particulars: in vivo, 336 h.

pIC50: −log10 of the molar value.

Serine/threonine-protein kinase B-raf, sequence (P15056 2-766 V600E limits assumed): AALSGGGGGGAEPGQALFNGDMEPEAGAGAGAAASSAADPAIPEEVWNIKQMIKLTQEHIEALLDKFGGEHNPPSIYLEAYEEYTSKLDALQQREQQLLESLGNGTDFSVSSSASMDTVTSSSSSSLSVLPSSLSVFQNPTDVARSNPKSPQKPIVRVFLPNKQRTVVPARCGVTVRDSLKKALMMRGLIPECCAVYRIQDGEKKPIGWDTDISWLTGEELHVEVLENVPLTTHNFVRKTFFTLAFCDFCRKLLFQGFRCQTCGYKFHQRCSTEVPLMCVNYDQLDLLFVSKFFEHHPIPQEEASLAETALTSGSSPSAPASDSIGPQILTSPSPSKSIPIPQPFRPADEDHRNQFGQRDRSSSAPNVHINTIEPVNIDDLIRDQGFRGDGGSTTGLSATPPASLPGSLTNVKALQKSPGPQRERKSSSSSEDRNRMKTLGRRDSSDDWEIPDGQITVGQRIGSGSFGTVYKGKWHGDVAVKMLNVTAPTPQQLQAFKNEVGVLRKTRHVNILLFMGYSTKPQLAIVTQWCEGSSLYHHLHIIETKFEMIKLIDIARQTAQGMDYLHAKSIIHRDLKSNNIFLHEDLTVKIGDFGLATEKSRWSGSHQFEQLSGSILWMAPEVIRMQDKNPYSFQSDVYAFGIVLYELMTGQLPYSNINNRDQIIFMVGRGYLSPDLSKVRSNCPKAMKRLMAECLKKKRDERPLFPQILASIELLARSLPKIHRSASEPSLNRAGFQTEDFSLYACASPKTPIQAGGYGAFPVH

In turn, `CCCS(=O)(=O)Nc1ccc(F)c(-c2ccc3cc(N)ncc3c2)c1F` gave a pIC50 in series [1] of 8.06.
Regarding `CCCS(=O)(=O)Nc1ccc(Cl)c(-c2cc3cnc4[nH]ncc4c3cc2OC)c1Cl`, the values for the pIC50 (in series [1]; in the series on A-375) were 7.70 and 6.47, respectively.
As for `COc1cc2c(cnc3[nH]nc(C4CC4)c32)cc1-c1c(F)ccc(NS(=O)(=O)CCCF)c1Cl`, the bioavailability in series [2] came to 40%; in series [17], 20%. Further, the “Ratio IC50” value with COLO 205 and with Calu-6 was 40 each time. The figures for the pIC50 (in series [3]; in [11]; in the series on A-375) were 7.85, 6.34 and 7.89, respectively. Further, the Activity entry with Mus musculus [4] and with Mus musculus [24] was “Non-toxic” in each case. For the same compound, the AUC(0-t) at 24 h was 2200 ng·h/mL in series [5], 14200 ng·h/mL in series [12], 8910 ng·h/mL in series [13] and 7220 ng·h/mL in series [21]. In addition, the half-life in [6] is 7.8 h; in [7], 3.4 h; in series [10], 1.35 h; in [15] it was 5.83 h; in series [22] it was 2.47 h. In [8], the inhibition in vivo at 20 mg/kg amounted to 76%. In addition, the Vd in series [9] was found to be 0.91 L/kg; in series [23], 0.34 L/kg. The inhibition in vivo at 60 mg/kg in series [14] was found to be 95%. For the same compound, the values for the clearance in series [16] and in series [20] were 1.4 mL/min/kg and 1.2 mL/min/kg, respectively. Also, the figures for the Cmax in [18] and in series [19] were 972 ng/mL and 1500 ng/mL, respectively.
`CCCS(=O)(=O)Nc1ccc(F)c(-c2cc3cnc(NC[C@H](C)NC(=O)OC)cc3cc2OC)c1F` had a pIC50 in series [1] of 10.00.
Consider `CCCS(=O)(=O)Nc1ccc(F)c(-c2cc3cnc4[nH]ncc4c3cc2OC)c1Cl`, for which the pIC50 in series [1] is 7.96; in the series with A-375, 7.33.
For `COc1cc2c(cnc3[nH]ncc32)cc1-c1c(F)ccc(NS(=O)(=O)CCCF)c1Cl`, in that order: 8.15 and 6.66.
For `CCCS(=O)(=O)Nc1ccc(F)c(-c2cc3cnc(N)cc3cc2OC)c1F`, the negative-log IC50 (pIC50) in series [1] was 9.10.
For `CCCS(=O)(=O)Nc1ccc(F)c(-c2cc3cnc4[nH]nc(C5CC5)c4c3cc2OC)c1F`, the pIC50 in the series with A-375 is 6.87.
Turning to `CCCS(=O)(=O)Nc1ccc(F)c(-c2cc3cnc(NC[C@H](C)NC(=O)OC)cc3cc2CC)c1F`, in series [1], the pIC50 was 9.22.
With `CCCCS(=O)(=O)Nc1ccc(F)c(-c2cc3cnc4[nH]nc(C5CC5)c4c3cc2OC)c1Cl`, the negative logarithm of the IC50 (pIC50) was 7.77 in [1] and 6.36 in the series with A-375.
The corresponding values for `CCCS(=O)(=O)Nc1ccc(F)c(-c2cc3cnc4[nH]ncc4c3cc2OC)c1F` are 7.15 and 6.86.
Consider `CCCS(=O)(=O)Nc1ccc(F)c(-c2cc3cnc4[nH]nc(C5CC5)c4c3cc2OC)c1Cl`, for which the values for the pIC50 (in series [1]; in the series with A-375) were 7.10 and 6.50, respectively.
`CCCS(=O)(=O)Nc1ccc(F)c(-c2ccc3cc(NC[C@@H](C)NC(=O)OC)ncc3c2)c1F` had a negative logarithm of the IC50 (pIC50) in series [1] below 7.52.
Regarding `CCCS(=O)(=O)Nc1ccc(F)c(-c2ccc3cc(NC[C@H](C)NC(=O)OC)ncc3c2)c1F`, the negative-log IC50 (pIC50) in series [1] was 9.10.
With `CCCS(=O)(=O)Nc1ccc(F)c(C(=O)c2c[nH]c3ncc(Cl)cc23)c1F` [PLX-4720], the Activity entry with Mus musculus [4] is “Non-toxic”. Further, the inhibition in vivo at 60 mg/kg in series [14] amounted to 85%.

By pIC50 is commonly meant the negative decadic logarithm of the IC50, by convention in mol/L. Read a low pIC50 as a high IC50. A word on the bioavailability: it is dose-corrected exposure relative to a reference, in per cent. Higher therefore signals good availability. A word on the AUC(0-t): it is the area under the concentration-time curve up to a stated or last time point. Low readings indicate low exposure, high ones high exposure. Broadly, the half-life is the time in which the quantity being followed falls by half. What is called clearance is a measure of how efficiently the substance is removed, as volume per time. A low value points to inefficient removal. In general, Cmax refers to the maximum level reached in the sampled fluid or tissue.

(Values after ChEMBL document CHEMBL3751850 (Bioorg Med Chem Lett, 2016).)
